Measurements as given in the CheMixHub viscosity set.

Experiment: xn = mol fraction of the nth substance listed

COC(=O)c1ccccc1 + CO
viscosity [mPa·s], 101.33 kPa
Conditions	x1 = 0.0499	x1 = 0.0999	x1 = 0.2	x1 = 0.3001	x1 = 0.4001	x1 = 0.4999	x1 = 0.5999	x1 = 0.65	x1 = 0.8001	x1 = 0.9001
293.15 K	0.653	0.721	0.86	0.997	1.133	1.263	1.395	1.461	1.673	1.834
298.15 K	0.608	0.67	0.796	0.918	1.041	1.156	1.273	1.331	1.518	1.66
303.15 K	0.568	0.625	0.738	0.849	0.958	1.062	1.167	1.22	1.387	1.511
308.15 K	0.531	0.584	0.686	0.786	0.886	0.98	1.075	1.122	1.272	1.385
313.15 K	0.499	0.547	0.64	0.732	0.822	0.907	0.993	1.036	1.173	1.275

C=CC(=O)OC(C)(C)C + CC#N
viscosity [mPa·s], 100 kPa
Conditions	293.15 K	298.15 K	303.15 K	308.15 K	313.15 K	318.15 K
x2 = 0.0772	0.8592	0.787	0.72	0.664	0.6141	0.571
x2 = 0.1496	0.8154	0.7472	0.684	0.631	0.5837	0.5427
x2 = 0.2216	0.7728	0.7087	0.6493	0.5994	0.5548	0.5161
x2 = 0.2983	0.7282	0.6684	0.6132	0.5668	0.5252	0.489
x2 = 0.3643	0.6903	0.6344	0.5828	0.5393	0.5003	0.4663
x2 = 0.4345	0.6506	0.5988	0.5511	0.5107	0.4745	0.4426
x2 = 0.5074	0.61	0.5624	0.5187	0.4816	0.4481	0.4186
x2 = 0.5769	0.5719	0.5284	0.4885	0.4544	0.4236	0.3963
x2 = 0.6465	0.5345	0.495	0.459	0.4278	0.3997	0.3746
x2 = 0.7141	0.4991	0.4635	0.4312	0.403	0.3775	0.3546
x2 = 0.7821	0.4645	0.4329	0.4044	0.3793	0.3565	0.3358
x2 = 0.8603	0.4264	0.3994	0.3753	0.354	0.3344	0.3164
x2 = 0.9345	0.3923	0.3699	0.3502	0.3324	0.3162	0.301
